ChEMBL document CHEMBL1152979, “Inhibition of the insulin-like growth factor-1 receptor (IGF1R) tyrosine kinase as a novel cancer therapy approach” (J Med Chem, 2009)

Columns and labels:
Insulin receptor [1] = molecular target: T1, Insulin receptor (Homo sapiens, UniProt P06213); test: Inhibition of IRK
[2] = molecular target: T2, Insulin-like growth factor 1 receptor (Homo sapiens, UniProt P08069); test: Displacement of fluorescent ATP competitive ligand from IGF1R
[3] = molecular target: T2, Insulin-like growth factor 1 receptor
Description: Inhibition of IGF1R by cell based assay

[4] = molecular target: T2, Insulin-like growth factor 1 receptor; remark: listed apart in the source
[5] = Selectivity for HER2 over EGFR
[6] = molecular target: T2, Insulin-like growth factor 1 receptor; test: Inhibition of IGF1R in human MCF7 cells by Western blot analysis; assay type: cell-based
[7] = Selectivity for EGFR over HER2
[8] = Cytotoxicity against human RD1 cells; assay type: functional, cell-based
[9] = Cytotoxicity against human MDA PCa 2b cells; assay type: functional, cell-based
[10] = Selectivity for insulin receptor over IGF1R
[11] = molecular target: T2, Insulin-like growth factor 1 receptor; test: Inhibition of GST-tagged human IGF1R expressed in baculovirus-infected Sf21 cells by scintillation proximity assay
[12] = molecular target: T2, Insulin-like growth factor 1 receptor; test: Inhibition of IGF1R in IGF1-stimulated human MCF7 cells by Western blot analysis; assay type: cell-based
COLO 205 = test: Cytotoxicity against human COLO205 cells; assay type: functional, cell-based
MCF7 = test: Cytotoxicity against human MCF7 cells; assay type: functional, cell-based
Focal adhesion kinase 1 = Focal adhesion kinase 1 (Homo sapiens, UniProt Q05397)
Chain of Focal adhesion kinase 1 (Q05397 whole entry): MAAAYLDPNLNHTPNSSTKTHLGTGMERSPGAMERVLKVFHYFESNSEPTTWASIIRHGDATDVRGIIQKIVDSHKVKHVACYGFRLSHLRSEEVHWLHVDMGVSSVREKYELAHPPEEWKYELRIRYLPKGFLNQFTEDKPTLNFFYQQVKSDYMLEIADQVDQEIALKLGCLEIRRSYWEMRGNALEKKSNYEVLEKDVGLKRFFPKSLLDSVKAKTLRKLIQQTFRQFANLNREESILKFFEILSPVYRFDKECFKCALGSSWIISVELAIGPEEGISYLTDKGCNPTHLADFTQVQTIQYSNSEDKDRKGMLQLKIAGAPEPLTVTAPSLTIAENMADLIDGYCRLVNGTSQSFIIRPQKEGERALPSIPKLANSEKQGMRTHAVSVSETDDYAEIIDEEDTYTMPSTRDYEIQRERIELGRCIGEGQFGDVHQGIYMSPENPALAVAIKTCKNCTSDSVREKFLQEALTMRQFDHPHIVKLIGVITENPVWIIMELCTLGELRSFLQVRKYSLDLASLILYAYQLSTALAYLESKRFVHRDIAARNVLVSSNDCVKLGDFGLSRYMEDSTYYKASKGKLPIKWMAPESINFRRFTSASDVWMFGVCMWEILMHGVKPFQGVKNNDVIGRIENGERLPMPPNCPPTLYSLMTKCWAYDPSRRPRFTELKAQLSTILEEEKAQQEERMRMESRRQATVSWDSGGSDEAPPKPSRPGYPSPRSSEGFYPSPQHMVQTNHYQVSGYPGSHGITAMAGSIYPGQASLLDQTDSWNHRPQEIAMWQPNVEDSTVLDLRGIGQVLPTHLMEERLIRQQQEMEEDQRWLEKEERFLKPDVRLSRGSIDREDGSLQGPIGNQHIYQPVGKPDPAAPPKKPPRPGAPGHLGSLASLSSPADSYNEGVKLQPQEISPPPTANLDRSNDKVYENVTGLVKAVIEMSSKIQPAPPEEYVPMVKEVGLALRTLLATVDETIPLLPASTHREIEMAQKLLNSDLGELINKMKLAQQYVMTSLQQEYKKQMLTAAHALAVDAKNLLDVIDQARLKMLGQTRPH

[13] = molecular target: Tyrosine-protein kinase Lck (Homo sapiens, UniProt P06239)
[14] = molecular target: Receptor tyrosine-protein kinase erbB-2 (Homo sapiens, UniProt P04626); test: Inhibition of HER2
[15] = Inhibition of PDGFR
[16] = molecular target: Vascular endothelial growth factor receptor 2 (Homo sapiens, UniProt P35968); test: Inhibition of VEGFR2
Bcr/Abl fusion protein = Bcr/Abl fusion protein (Homo sapiens, UniProt P00519); test: Inhibition of BCR-ABL p210; assay type: protein assay
[17] = molecular target: T2, Insulin-like growth factor 1 receptor; remark: listed apart in the source
Description: Inhibition of IGF1R by cell based assay

Insulin receptor [18] = molecular target: T1, Insulin receptor
Description: Inhibition of insulin receptor by cell based assay

[19] = molecular target: Mast/stem cell growth factor receptor Kit (Homo sapiens, UniProt P10721)
Chain of Mast/stem cell growth factor receptor Kit (P10721 whole entry): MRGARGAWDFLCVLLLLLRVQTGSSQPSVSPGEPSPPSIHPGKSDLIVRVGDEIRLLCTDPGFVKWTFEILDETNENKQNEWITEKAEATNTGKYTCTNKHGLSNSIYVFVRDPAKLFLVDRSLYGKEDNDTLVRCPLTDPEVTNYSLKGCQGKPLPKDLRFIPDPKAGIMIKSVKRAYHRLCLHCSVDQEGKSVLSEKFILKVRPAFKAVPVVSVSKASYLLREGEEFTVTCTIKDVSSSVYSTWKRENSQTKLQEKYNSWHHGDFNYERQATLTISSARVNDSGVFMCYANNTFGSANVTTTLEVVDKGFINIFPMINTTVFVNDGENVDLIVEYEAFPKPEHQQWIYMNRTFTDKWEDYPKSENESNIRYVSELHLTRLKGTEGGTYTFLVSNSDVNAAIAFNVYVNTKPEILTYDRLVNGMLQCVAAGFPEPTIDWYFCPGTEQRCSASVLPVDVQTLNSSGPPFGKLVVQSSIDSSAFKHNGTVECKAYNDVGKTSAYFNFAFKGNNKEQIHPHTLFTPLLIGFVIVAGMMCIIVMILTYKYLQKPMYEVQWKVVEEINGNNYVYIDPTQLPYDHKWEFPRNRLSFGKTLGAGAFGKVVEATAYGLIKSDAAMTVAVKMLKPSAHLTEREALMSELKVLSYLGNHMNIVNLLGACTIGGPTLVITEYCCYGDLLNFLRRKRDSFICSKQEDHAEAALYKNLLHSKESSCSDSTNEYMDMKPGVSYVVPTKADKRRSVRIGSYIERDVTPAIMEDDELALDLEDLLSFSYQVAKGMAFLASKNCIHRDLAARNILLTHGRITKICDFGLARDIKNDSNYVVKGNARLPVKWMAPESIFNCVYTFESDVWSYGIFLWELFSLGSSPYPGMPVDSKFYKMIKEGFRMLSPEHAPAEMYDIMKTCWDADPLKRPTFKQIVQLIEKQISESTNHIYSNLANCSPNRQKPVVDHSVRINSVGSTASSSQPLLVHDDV

[20] = molecular target: T2, Insulin-like growth factor 1 receptor; test: Inhibition of IGF1R autophosphorylation in human MCF7 cells by Western blot analysis; assay type: cell-based
[21] = molecular target: Epidermal growth factor receptor (Homo sapiens, UniProt P00533); test: Inhibition of HER1
[22] = molecular target: T2, Insulin-like growth factor 1 receptor; test: Inhibition for IGF1R-induced S6 ribosomal protein phosphorylation in growth factor-stimulated NHDF
[23] = molecular target: T2, Insulin-like growth factor 1 receptor; test: Inhibition of IGF1R in growth factor-stimulated NHDF

T1 sequence (P06213 28-758 limits assumed): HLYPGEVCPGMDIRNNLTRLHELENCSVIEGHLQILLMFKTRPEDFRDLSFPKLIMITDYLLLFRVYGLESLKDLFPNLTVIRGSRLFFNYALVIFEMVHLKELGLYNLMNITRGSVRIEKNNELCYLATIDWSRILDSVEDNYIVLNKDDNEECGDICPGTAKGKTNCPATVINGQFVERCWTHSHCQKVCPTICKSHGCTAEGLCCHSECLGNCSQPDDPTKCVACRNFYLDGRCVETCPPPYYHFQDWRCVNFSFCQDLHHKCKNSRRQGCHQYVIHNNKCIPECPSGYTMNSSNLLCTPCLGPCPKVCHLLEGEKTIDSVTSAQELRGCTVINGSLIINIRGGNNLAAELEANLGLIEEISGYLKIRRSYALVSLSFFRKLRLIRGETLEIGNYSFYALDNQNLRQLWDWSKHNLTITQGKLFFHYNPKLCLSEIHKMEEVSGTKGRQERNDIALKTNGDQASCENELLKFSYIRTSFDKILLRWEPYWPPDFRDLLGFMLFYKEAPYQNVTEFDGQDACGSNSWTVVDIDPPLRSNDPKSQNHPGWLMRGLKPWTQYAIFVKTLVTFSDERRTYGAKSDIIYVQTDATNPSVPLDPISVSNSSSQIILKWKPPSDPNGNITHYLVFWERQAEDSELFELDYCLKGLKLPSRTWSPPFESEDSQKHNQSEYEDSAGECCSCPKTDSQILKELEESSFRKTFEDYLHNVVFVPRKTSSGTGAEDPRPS
T1 sequence (P06213 763-1382 limits assumed): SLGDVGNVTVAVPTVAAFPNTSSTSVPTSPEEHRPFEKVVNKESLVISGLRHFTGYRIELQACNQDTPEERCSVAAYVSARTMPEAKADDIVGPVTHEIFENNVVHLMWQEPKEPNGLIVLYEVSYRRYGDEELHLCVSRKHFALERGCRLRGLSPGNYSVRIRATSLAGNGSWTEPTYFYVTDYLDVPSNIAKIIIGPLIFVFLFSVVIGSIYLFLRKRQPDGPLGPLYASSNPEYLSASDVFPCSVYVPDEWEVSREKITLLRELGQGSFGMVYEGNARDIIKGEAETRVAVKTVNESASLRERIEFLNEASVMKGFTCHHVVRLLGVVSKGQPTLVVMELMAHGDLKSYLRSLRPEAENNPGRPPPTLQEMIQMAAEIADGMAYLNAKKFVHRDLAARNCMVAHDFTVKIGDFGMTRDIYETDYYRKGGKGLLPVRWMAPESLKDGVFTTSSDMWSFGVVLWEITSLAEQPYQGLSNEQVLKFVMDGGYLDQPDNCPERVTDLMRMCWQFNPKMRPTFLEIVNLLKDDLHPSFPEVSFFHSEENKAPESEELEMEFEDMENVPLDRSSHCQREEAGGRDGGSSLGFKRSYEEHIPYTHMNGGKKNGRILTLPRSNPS
T2 sequence (P08069 31-736 limits assumed): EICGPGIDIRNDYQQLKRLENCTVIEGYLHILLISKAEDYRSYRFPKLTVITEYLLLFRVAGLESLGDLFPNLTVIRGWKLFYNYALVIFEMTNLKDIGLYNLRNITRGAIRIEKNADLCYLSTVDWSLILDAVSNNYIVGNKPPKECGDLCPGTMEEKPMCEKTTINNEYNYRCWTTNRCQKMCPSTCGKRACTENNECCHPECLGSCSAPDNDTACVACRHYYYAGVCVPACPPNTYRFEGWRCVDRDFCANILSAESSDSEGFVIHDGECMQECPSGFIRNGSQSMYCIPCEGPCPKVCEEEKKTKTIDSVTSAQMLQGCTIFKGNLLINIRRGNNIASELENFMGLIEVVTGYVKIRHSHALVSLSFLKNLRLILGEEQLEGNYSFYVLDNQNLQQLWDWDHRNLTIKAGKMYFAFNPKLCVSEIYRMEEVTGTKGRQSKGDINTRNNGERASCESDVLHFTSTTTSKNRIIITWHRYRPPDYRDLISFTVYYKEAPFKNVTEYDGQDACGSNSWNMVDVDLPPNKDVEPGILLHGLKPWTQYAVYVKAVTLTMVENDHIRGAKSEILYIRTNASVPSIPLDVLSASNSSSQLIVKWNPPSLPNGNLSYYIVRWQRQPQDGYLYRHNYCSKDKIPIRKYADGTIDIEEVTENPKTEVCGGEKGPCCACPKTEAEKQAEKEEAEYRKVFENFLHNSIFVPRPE
T2 sequence (P08069 741-1367 limits assumed): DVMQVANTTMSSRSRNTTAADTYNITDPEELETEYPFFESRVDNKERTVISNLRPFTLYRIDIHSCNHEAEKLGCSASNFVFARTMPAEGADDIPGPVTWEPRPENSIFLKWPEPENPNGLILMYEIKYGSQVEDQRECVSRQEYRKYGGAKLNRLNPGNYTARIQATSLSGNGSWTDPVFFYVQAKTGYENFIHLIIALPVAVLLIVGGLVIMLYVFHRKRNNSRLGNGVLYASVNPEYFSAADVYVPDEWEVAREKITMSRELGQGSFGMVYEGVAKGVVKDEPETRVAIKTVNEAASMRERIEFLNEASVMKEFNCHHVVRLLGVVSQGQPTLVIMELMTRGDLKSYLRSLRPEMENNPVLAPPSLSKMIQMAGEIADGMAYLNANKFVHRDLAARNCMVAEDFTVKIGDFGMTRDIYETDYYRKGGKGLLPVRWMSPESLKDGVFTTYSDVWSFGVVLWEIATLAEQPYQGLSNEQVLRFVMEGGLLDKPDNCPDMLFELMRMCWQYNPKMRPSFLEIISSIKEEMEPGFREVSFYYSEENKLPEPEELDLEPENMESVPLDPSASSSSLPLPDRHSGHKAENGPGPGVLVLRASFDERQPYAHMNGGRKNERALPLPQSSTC

Structure (SMILES): CCOC(=O)c1c(C=O)[nH]c(C(=O)OC(C)(C)C)c1CC
- Activity (Insulin receptor [1]): 2 µM
- Activity [2]: 0.49 µM
- Activity [3]: 5.3 µM

Structure (SMILES): N#C/C(=C\c1ccc(O)c(O)c1)C(=O)c1ccc(O)c(O)c1
- IC50 [4]: 61 nM

Structure (SMILES): Cc1cc(N2CCOCC2)cc2[nH]c(-c3c(NC[C@H](O)c4ccccc4Cl)cc[nH]c3=O)nc12
- IC50 [4]: 830 nM

Structure (SMILES): CC(C)(C)c1cc(/C=C(\C#N)C(N)=S)cc(C(C)(C)C)c1O
- Selectivity ratio [5]: 1000

Structure (SMILES): CN1CCN(c2ccc(C(=O)Nc3n[nH]c4c3CN(S(=O)(=O)c3cc(F)cc(F)c3)CC4)c(NC(=O)c3ccc[nH]3)c2)CC1
- IC50 [6]: 80 nM

Structure (SMILES): N#C/C(=C\c1ccc(O)c(O)c1)C(=O)NCc1ccccc1
- Selectivity ratio [7]: 100

Structure (SMILES): CCOC(=O)c1[nH]c(C=O)c(C(=O)OCC)c1C
- Activity (Insulin receptor [1]): 12 µM
- Activity [2]: 2.7 µM
- Activity [3]: 15 µM

Structure (SMILES): Cc1cc(N2CCOCC2)cc2[nH]c(-c3c(NC[C@@H](O)c4cccc(Cl)c4)cc[nH]c3=O)nc12
- IC50 [8]: 202 nM
- IC50 [9]: 194 nM

Structure (SMILES): O=C(O[C@@H]1Cc2ccccc2O[C@@H]1c1cc(O)c(O)c(O)c1)c1cc(O)c(O)c(O)c1
- IC50 [4]: 14000 nM

Structure (SMILES): Nc1nccn2cnc(-c3ccc4ccc(-c5ccccc5)nc4c3C3CC(N4CC4)C3)c12 (configuration not stated)
- Selectivity ratio [10]: 5
- IC50 [4]: 20 nM

Structure (SMILES): CN1CCN(c2ccc(C(=O)Nc3n[nH]c4c3CN(S(=O)(=O)c3cc(F)cc(F)c3)C4(C)C)cc2NC(=O)c2cc[nH]c2)CC1
- IC50 [11]: 90 nM
- IC50 [12]: 300 nM

Structure (SMILES): Cc1cc(N2CCN(CCC#N)CC2)cc2nc(-c3c(NC[C@@H](O)c4ccccc4Cl)cc[nH]c3=O)[nH]c12
- IC50 [8]: 146 nM
- IC50 [9]: 188 nM
- IC50 (COLO 205): 120 nM
- IC50 (MCF7): 234 nM
- IC50 (Focal adhesion kinase 1): 94 nM
- IC50 [13]: > 1500 nM

Structure (SMILES): Nc1ncnc2c1c(-c1cccc(OCc3ccccc3)c1)cn2[C@H]1C[C@H](N2CCCC2)C1
- IC50 [14]: > 10000 nM
- IC50 [15]: > 10000 nM
- IC50 [16]: > 10000 nM
- IC50 (Bcr/Abl fusion protein): > 10000 nM
- IC50 [17]: 170 nM
- IC50 (Insulin receptor [18]): 2800 nM
- IC50 [19]: > 5000 nM

Structure (SMILES): COc1ccc(Cl)cc1NC(=O)Nc1cc(C)nc2ccccc12
- IC50 [20]: < 1000 nM

Structure (SMILES): Nc1ncnc2c1c(-c1cccc(OCc3ccccc3)c1)cn2[C@H]1C[C@@H](CN2CCC2)C1 [AEW-541]
- IC50 [21]: > 10000 nM
- IC50 (Bcr/Abl fusion protein): > 10000 nM
- IC50 [19]: > 5000 nM

Structure (SMILES): CN1CCN(c2ccc(C(=O)Nc3n[nH]c4c3CN(S(=O)(=O)c3cc(F)cc(F)c3)CC4)cc2)CC1
- IC50 [22]: 3050 nM
- IC50 [23]: 340 nM
